Values after ≈ are worked out from the molar mass of the structure shown. Where two headings read alike, the source gives them in different places. Non-standard residues stand in square brackets, D forms with d. Residues, ends and D or L forms follow the SMILES beside them. No end group written: not given here. Where only a bound is given, the exact number is not on record here.

One series deals with S. aureus (ATCC 6538). Kind of series: microbe, parasite or virus in culture. It counts as cell-based, Staphylococcus aureus. The note with it: for MBC: ATCC 6538, 18 h; for MIC: ATCC 6538, 24 h. The procedure: (§1) The antimicrobial activities of peptides were evaluated against the Gram-positive bacteria, S. aureus (ATCC 6538), methicillin-resistant Staphylococcus aureus (MRSA) (NCTC 12493), Enterococcus faecalis (E. faecalis) (NCTC 12697); the Gram-negative bacteria, E. coli (ATCC CRM 8739), Klebsiella pneumoniae (K. pneumoniae) (ATCC 43816), Pseudomonas aeruginosa (P. aeruginosa) (ATCC CRM 9027); and the yeast, Candida albicans (C. albicans) (ATCC CRM 10231). Clinical isolates of MRSA (B042 V2E1 A), E. coli (ATCC BAA-2340), K. pneumoniae (ATCC BAA-1705), and P. aeruginosa (B004 V2S2 B) were also used to determine their antimicrobial activities. The suspension of microorganisms in the logarithmic growth phase with a specific final density (Gram-negative and Gram-positive bacteria: 5 × 10^5 CFU/mL; yeast: 1 × 10^6 CFU/mL) was incubated with different peptide concentrations from 1 µM to 512 µM at 37 °C for 24 h. PBS was used as the negative control, and norfloxacin and amphotericin B were selected as the positive control for bacteria and yeast, respectively. Since the Norfloxacin had weak activities against P. aeruginosa (B004 V2S2 B) and K. pneumoniae (ATCC BAA 1705), gentamicin was used as the positive control for these two bacterial strains. The absorbance of each well was obtained using a microplate reader (EL808, Biolise BioTek, Winooski, VT, USA) set at 550 nm wavelength. The MIC value was the lowest concentration of a peptide that inhibits visible bacterial growth. Once the MIC values were determined, an aliquot from the bacterial culture exposed to the peptide at or above its MIC value was inoculated on a Mueller Hinton agar (MHA) and was incubated at 37 for 18 h. The MBC value was the lowest concentration of a peptide that kills 99.9% of bacteria.

Series [1] concerns C. albicans (ATCC CRM 10231). Put plainly: organism not typed. In kind it is cell-based, Candida albicans. The note with it: for MBC: ATCC CRM 10231, 18 h; for MIC: ATCC CRM 10231, 24 h. The procedure:
as §1

Series [2] concerns K. pneumoniae (ATCC 43816). Put plainly: microbe, parasite or virus in culture. The note with it: for MBC: ATCC 43816, 18 h; for MIC: ATCC 43816, 24 h. In kind it is cell-based, Klebsiella pneumoniae. The procedure:
as §1

Series [3] concerns K. pneumoniae (ATCC BAA-1705). Put plainly: microbe, parasite or virus in culture. In kind it is cell-based, Klebsiella pneumoniae. The note with it: for MBC: ATCC BAA-1705, 18 h; for MIC: ATCC BAA-1705, 24 h. The method, then: as §1
The next series has as its system E. faecalis (NCTC 12697). Kind of series: microbe, parasite or virus in culture. In kind it is cell-based, Enterococcus faecalis. The note with it: for MBC: NCTC 12697, 18 h; for MIC: NCTC 12697, 24 h. The method, then: as §1
The test system of the next series is horse red blood cells. It counts as cell-based. The procedure:
As a previous study described in detail, the haemolysis activity assays of peptides were conducted on defibrinated horse blood (TCS Biosciences Ltd., Buckingham, UK) with an erythrocyte suspension concentration of 2% (v/v). The 120 μL of peptide solution in a gradient concentration ranging from 1µM to 512 µM was mixed with the same volume of 2% horse red blood cell suspension, and the complex was incubated at 37 °C for 2 h. PBS and 0.1% Triton X-100 were chosen as the negative and positive control, respectively. After centrifugation at 900× g for 5 min, the absorbance of the supernatant was analysed using a microplate reader (EL808, Biolise BioTek, Winooski, VT, USA) set to a wavelength of 570 nm. The equation to calculate the haemolysis of the peptides is shown below: Haemolysis (%)=A−An/Ap−An×100% where A represents the absorbance of each treatment group, An represents the average absorbance of the negative control group, and Ap represents the average absorbance of the positive control group.

In series [4] the test system is S. aureus (ATCC 6538) biofilm. In kind it is cell-based, Staphylococcus aureus. The note with it: ATCC 6538, 24 h. The method, then:
(§2) The anti-biofilm activities of the peptides against S. aureus (ATCC 6538), MRSA (NCTC 12493), E. faecalis (NCTC 12697), E. coli (ATCC CRM 8739), K. pneumoniae (ATCC 43816), and P. aeruginosa (ATCC CRM 9027), were evaluated. For the MBIC assay, 99 µL of bacterial suspension (5 × 10^5 CFU/mL) was mixed with 1 µL of serial dilutions (from 100 µM to 51,200 µM) of temporin-PKE and its analogues in a 96-well plate, and the plate was incubated in a moist shaking incubator at a speed of 200 rpm at 37 °C for 24 h. For the MBEC assay, 100 µL of bacterial suspension (5 × 10^5 CFU/mL) in each well was seeded in a new 96-well plate, and the plate was put into the same shaking incubator for 24 h incubation to allow biofilm formation on the well. After biofilm formation, the biofilm in the plate was washed with PBS twice. The PBS was aspirated between washes to remove planktonic bacterial cells. The washed biofilm in each well was treated with 100 µL of serial dilutions (from 1 µM to 512 µM) of the test peptides. Then, the plate was incubated in the same shaking incubator for another 24 h. After being washed by PBS twice and fixed with methanol, the biofilm in each well was incubated with 100 µL of 0.1% crystal violet for 30 min, and the stained biofilm was dissolved in 100 µL of glacial acidic acid after drying. The solutions were transferred to a new microplate, and the absorbance of each well was measured using a microplate reader (EL808, Biolise BioTek, Winooski, VT, USA) set to 595 nm wavelength. The MBIC was the minimum concentration of the peptide showing no biofilm formation. The MBEC is the lowest concentration of the peptide capable of eradicating the mature biofilms, which had no biofilm in the well.

Series [5] relates to E. coli (ATCC CRM 8739) biofilm. In kind it is cell-based, Escherichia coli. The note with it: ATCC CRM 8739, 24 h. The procedure:
as §2

The test system of series [6] is K. pneumoniae (ATCC 43816) biofilm. It counts as cell-based, Klebsiella pneumoniae. The note with it: ATCC 43816, 24 h. The procedure:
as §2

Series [7] relates to P. aeruginosa (ATCC CRM 9027) biofilm. It counts as cell-based, Pseudomonas aeruginosa. The note with it: ATCC CRM 9027, 24 h. The method, then:
as §2

The HC50 is the concentration that lyses half of the red blood cells. The low end stands for more damage to red cells, the high end for less damage to red cells. Turning to `CC[C@@H](C)[C@@H](NC(=O)[C@H](CCCCN)NC(=O)[C@@H]1CCCN1C(=O)[C@H](CC(C)C)NC(=O)[C@H](CC(C)C)NC(=O)[C@H](CO)NC(=O)[C@H](CO)NC(=O)[C@H](CC(C)C)NC(=O)[C@H](C)NC(=O)CNC(=O)[C@H](NC(=O)[C@H](NC(=O)[C@H](CC(C)C)NC(=O)[C@@H]1CCCN1C(=O)[C@H](CC(C)C)NC(=O)[C@@H](N)Cc1ccccc1)[C@H](C)CC)[C@H](C)CC)C(=O)N[C@@H](Cc1ccccc1)C(N)=O` [Temporin-PKE-3i] (H-FLPL[dI][dI]GALSSLLPK[dI]F-NH2), the MBC in the series with S. aureus (ATCC 6538) was 32 µM (≈ 58.9 µg/mL); in series [1] (read-out: MBC), 256 µM (≈ 471 µg/mL); in [2] (read-out: MBC) it was over 512 µM; in [3] (read-out: MBC) it was over 512 µM; with E. faecalis (NCTC 12697), 128 µM (≈ 236 µg/mL). The MIC is 32 µM (≈ 58.9 µg/mL) against S. aureus (ATCC 6538), over 512 µM in [2] (read-out: MIC), over 512 µM in [3] (read-out: MIC) and 128 µM (≈ 236 µg/mL) in the series with E. faecalis (NCTC 12697). Moreover, in the series on horse red blood cells (red cells of horse, 2 h), the HC50 is 64.0 µM. The MBIC was 64 µM in series [4], over 512 µM in [5], over 512 µM in series [6] and over 512 µM in series [7].

Regarding `CC[C@@H](C)[C@@H](NC(=O)[C@H](CCCCN)NC(=O)[C@@H]1CCCN1C(=O)[C@H](CC(C)C)NC(=O)[C@H](CC(C)C)NC(=O)[C@H](CO)NC(=O)[C@H](CO)NC(=O)[C@H](CC(C)C)NC(=O)[C@H](C)NC(=O)CNC(=O)[C@@H](NC(=O)[C@@H](NC(=O)[C@H](CC(C)C)NC(=O)[C@@H]1CCCN1C(=O)[C@H](CC(C)C)NC(=O)[C@@H](N)Cc1ccccc1)[C@@H](C)CC)[C@@H](C)CC)C(=O)N[C@@H](Cc1ccccc1)C(N)=O` [Temporin-PKE-i] (H-FLPLIIGALSSLLPK[dI]F-NH2), the MBC in the series on S. aureus (ATCC 6538) was 2 µM (≈ 3.68 µg/mL); in series [1] (read-out: MBC), over 512 µM; in series [2] (read-out: MBC) it was over 512 µM; in series [3] (read-out: MBC) it was over 512 µM; against E. faecalis (NCTC 12697), 4 µM (≈ 7.37 µg/mL). The MIC was 2 µM (≈ 3.68 µg/mL) against S. aureus (ATCC 6538); over 512 µM in [1] (read-out: MIC); over 512 µM in series [2] (read-out: MIC); over 512 µM in series [3] (read-out: MIC); 4 µM (≈ 7.37 µg/mL) with E. faecalis (NCTC 12697). This compound also showed an HC50 in the series on horse red blood cells (red cells of horse, 2 h) of 68.37 µM. The MBIC is 2 µM in series [4], over 512 µM in series [5], over 512 µM in series [6] and over 512 µM in series [7].

With FLPKIIGKLSSKLPKIF-NH2 [Temporin-PKE-4K], the MBC in the series with S. aureus (ATCC 6538) worked out at 32 µM; in series [1], 64 µM; in series [2], 16 µM; in series [3], 32 µM; against E. faecalis (NCTC 12697), 32 µM. For the same compound, the MIC is 32 µM with S. aureus (ATCC 6538); 64 µM in series [1]; 16 µM in series [2]; 32 µM in [3]; 32 µM in the series on E. faecalis (NCTC 12697). For the same compound, the HC50 in the series with horse red blood cells came to 1671 µM; with horse red blood cells (red cells of horse, 2 h), 1671 µM. The MBIC in [4] amounted to 32 µM; in series [5], 128 µM; in series [6], 256 µM; in series [7], 128 µM.

As for FLPKIIGKLSSLLPKIF-NH2 [Temporin-PKE-3K], the MBC was 2 µM with S. aureus (ATCC 6538); 64 µM in series [1] (read-out: MBC); 4/4 μM in series [2]; 8 µM in series [3]; 2 µM against E. faecalis (NCTC 12697). Besides, the MIC in the series on S. aureus (ATCC 6538) was 2 µM; in [1] (read-out: MIC) it was 32 µM; in series [2] (read-out: MIC) it was 4 µM; in [3] it was 8 µM; with E. faecalis (NCTC 12697) it was 2 µM. Besides, the HC50 in the series on horse red blood cells worked out at 87.47 µM; with horse red blood cells (red cells of horse, 2 h), 87.47 µM. Moreover, the MBIC in series [4] was 2 µM; in series [5], 16 µM; in series [6], 32 µM; in series [7] it was 64 µM.

For the compound “FLPLIIGALSSKLPKIF-NH2 [Temporin-PKE-K12]”, the MBC against S. aureus (ATCC 6538) is 4 µM; in series [1] (read-out: MBC), over 512 µM; in series [2] (read-out: MBC) it was 64 µM; in [3], 64 µM; against E. faecalis (NCTC 12697), 8 µM. In addition, the MIC was 4 µM in the series with S. aureus (ATCC 6538); over 512 µM in series [1] (read-out: MIC); 32 µM in series [2] (read-out: MIC); 64 µM in series [3]; 8 µM against E. faecalis (NCTC 12697). Besides, the HC50 in the series with horse red blood cells was 122.7 µM; with horse red blood cells (red cells of horse, 2 h), 122.7 µM. The MBIC in series [4] is 4 µM; in [5] it was 64 µM; in [6], 512/>512 μM; in series [7], over 512 µM.

FLPLIIGALSSLLPKIF-NH2 [Temporin-PKE]: the MBC against S. aureus (ATCC 6538) was 2 µM; in series [1] (read-out: MBC), over 512 µM; in series [2] (read-out: MBC) it was over 512 µM; in series [3] (read-out: MBC) it was over 512 µM; against E. faecalis (NCTC 12697), 8 µM. The MIC against S. aureus (ATCC 6538) was 2 µM; in [1] (read-out: MIC), over 512 µM; in series [2] (read-out: MIC), over 512 µM; in series [3] (read-out: MIC) it was over 512 µM; in the series on E. faecalis (NCTC 12697), 8 µM. The HC50 is 6.58 µM in the series with horse red blood cells and 6.58 µM in the series on horse red blood cells (red cells of horse, 2 h). Besides, the MBIC in series [4] is 2 µM; in [5], over 512 µM; in [6], over 512 µM; in [7], over 512 µM.

The values are drawn from article PMC9221509, “Discovery of a Novel Antimicrobial Peptide, Temporin-PKE, from the Skin Secretion of Pelophylax kl. esculentus, and Evaluation of Its Structure-Activity Relationships” (Biomolecules, 2022).
